Assay results: patent publication US20060258581A1, “Methods and composition for derepressions of IAP-inhibited caspase” (priority 2001, published 2006)
Where no end group is shown, it is not given here. [ ]: non-standard residue; d: D form. d2Nal = N[C@H](Cc1ccc2ccccc2c1)C(=O)O

Columns and labels:
[1] = system: mouse embryo fibroblasts (MEFs) from XIAP -/- mice; assay: Mouse embryo fibroblasts from XIAP -/- and wild type mice, MTT assay; assay type: cell-based; details: non-transformed versus SV40 large T transformed MEFs
Method: Cells were either tested directly at low passage (FIGS. 38A and C) or after transformation by infection with a retrovirus encoding SV40 large T antigen (FIGS. 38B and D). […] Cell viability was measured by MTT assay, expressing data as a percentage relative to control, untreated cells. Data shown in FIG. 38A-D represent mean±standard deviation of triplicate determinations.

[2] = target: T1, caspase-3 (Homo sapiens, UniProt P42574); assay: Caspase assay without XIAP (candidate mixture and caspase 3 only); assay type: biochemical; details: TPI 1239 library, absence of XIAP
T1 construct: made in house; host or cells: bacteria
Method: Caspase activity was assayed by release of 7-amino-4-trifluoromethyl-coumarin (AFC) from Ac-DEVD-AFC synthetic peptides using a Molecular Devices Spectromax 340 (see Zhou et al., J. Biol. Chem. 272:7797-7800 (1997)). […] The ratio of Vmax for hydrolysis of Ac-DEVD-AFC in the presence and absence of the candidate mixture was calculated and used to identify those that contain an agent that derepresses an IAP-inhibited caspase.
(§1) Screening of each mixture from the DCR390, TPI 1239 or TPI 1328 library, respectively, using the above described assay was carried out as follows. Each mixture was aliquoted in a 25 microliter volume and in duplicate to a well of a 96 well microtiter plate. […] Fluorescence of liberated AFC was immediately detected from each well for 30 minutes at 30 second intervals. The Vmax for hydrolysis of AC-DEVD-AFC from each well was measured using the softmax software package.
Results of the screen for the DCR390 library are shown in Table I. Sets of mixtures having the same position fixed with different respective amino acids are arranged in 6 sections identified with the position number. […] The mixtures in each section are arranged in descending order according to apparent velocity in the second column.

[3] = target: T2, XIAP-inhibited caspase-3 (Homo sapiens, UniProt P98170); assay: IAP derepression assay: Ac-DEVD-AFC hydrolysis by caspase-3 in the presence of GST-XIAP; assay type: biochemical
T2 construct: in a caspase derepression assay using full length XIAP; made in house; host or cells: bacteria
Method: The ratio of Vmax for hydrolysis of Ac-DEVD-AFC in the presence and absence of the candidate mixture was calculated and used to identify those that contain an agent that derepresses an IAP-inhibited caspase.
as §1, with “Each” for “Screening of each mixture from the DCR390, TPI 1239 or TPI 1328 library, respectively, using the above described assay was carried out as follows. Each”

[4] = Jurkat leukemia cell death, Annexin V/propidium iodide flow cytometry; assay type: cell-based; details: human, 20 hours, read-out: % nonviable cells
Method: (§2) The following assay was used to test the ability of individual compounds from the TPI 1396 and TPI 1391 libraries to induce apoptosis of cultured tumor cell lines. Each of the compounds listed in Table IX was individually added to Jurkat leukemia cells (6.25×10^5 cells/mL) in RPMI containing 2.5% FBS at various concentrations for 20 hours. After incubation, cells were washed and stained with FITC-conjugated Annexin V antibody and propidium iodide (Biovision; Mountain View, Calif.). Cells were incubated for 20 minutes at room temperature in the dark and fluorescence was measured by flow cytometry (FACScan, Immunocytometry system; Becton-Dickinson; San Jose, Calif.). Cells staining positive for Annexin V were deemed non-viable.
(§3) The TPI I396-34 and TPI 1391-28 compounds were further tested as set forth below.

[5] = system: acute myelogenous leukemia (AML) blasts; assay: Freshly isolated AML leukemic blasts from patients, annexin-V; assay type: cell-based, human; details: 20-24 hours
Excerpt: (§4) Since many tumor and leukemia cell lines proliferate faster than normal cells, it was investigated whether the polyphenylurea compounds could induce apoptosis of non-replicating malignant cells. […] Thus, cell replication is not required for sensitivity to the disclosed poly-phenylurea compounds.

[6] = system: NCI panel of 60 tumor cell lines; assay: NCI panel of 60 tumor cell lines, 48 hours, protein-based colorimetric assay; design: species or system human
Method: Selected polyphenylurea compounds were tested on the National Cancer Institute (NCI) panel of 60 tumor cell lines (see FIG. 28a and FIG. 29).

[7] = system: chronic lymphocytic leukemia (CLL) B-cells; assay: Freshly isolated CLL B-cells from patients, annexin-V/propidium iodide; assay type: cell-based, human; details: 20-24 hours
Excerpt: as §4

[8] = system: caspase-3 and caspase-7 activity in Jurkat cells; assay: Caspase-3 and caspase-7 activity in whole Jurkat cells, cell permeable substrate; assay type: cell-based; details: 8 μM, 20 hours
[9] = target: full length XIAP (Homo sapiens, UniProt P98170); assay: Potency of IAP antagonists in vitro (Table VIII; caspase derepression / SMAC competition with full length XIAP)
[10] = system: Jurkat leukemia cells; assay: Jurkat leukemia cell death, Annexin V/propidium iodide flow cytometry; assay type: cell-based; details: Homo sapiens, Jurkat, 20 h, 20 hours, read-out: % nonviable cells
Method: as §2, §3

[11] = system: Smac-7 mer/XIAP-BIR2; assay: Competition assay Smac-7 mer/XIAP-BIR2 IC-50 uM | AVG
[12] = target: BIR3RING (XIAP fragment) (human) (UniProt P98170); assay: fluorescence polarization; 20 nM rhodamine-SMAC, BIR3RING titrated
[13] = target: GST-BIR2 (glutathione-S-transferase-BIR2 fusion protein of XIAP) (human) (UniProt P98170); assay: fluorescence polarization; 20 nM rhodamine-SMAC, GST-BIR2 0 to 495 nM
GST-BIR2 (glutathione-S-transferase-BIR2 fusion protein of XIAP) (human), sequence (P98170 124-240): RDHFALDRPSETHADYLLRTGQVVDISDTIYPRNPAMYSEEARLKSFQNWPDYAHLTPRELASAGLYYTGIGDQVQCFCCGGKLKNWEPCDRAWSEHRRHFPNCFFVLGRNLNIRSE

T2 sequence (P98170 whole entry): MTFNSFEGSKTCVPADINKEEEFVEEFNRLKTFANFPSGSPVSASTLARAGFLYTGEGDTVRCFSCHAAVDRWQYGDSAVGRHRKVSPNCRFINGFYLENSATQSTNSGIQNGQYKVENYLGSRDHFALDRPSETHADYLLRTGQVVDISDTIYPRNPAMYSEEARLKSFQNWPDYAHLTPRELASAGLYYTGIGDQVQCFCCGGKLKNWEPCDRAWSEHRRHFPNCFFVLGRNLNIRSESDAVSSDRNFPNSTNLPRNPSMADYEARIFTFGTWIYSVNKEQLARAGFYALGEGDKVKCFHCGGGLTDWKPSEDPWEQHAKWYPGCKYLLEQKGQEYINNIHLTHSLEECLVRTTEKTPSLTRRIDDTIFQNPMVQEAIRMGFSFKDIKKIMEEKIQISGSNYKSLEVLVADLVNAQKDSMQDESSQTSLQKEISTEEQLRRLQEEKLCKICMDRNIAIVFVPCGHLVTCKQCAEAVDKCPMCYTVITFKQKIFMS
T1 sequence (P42574 29-175 limits assumed): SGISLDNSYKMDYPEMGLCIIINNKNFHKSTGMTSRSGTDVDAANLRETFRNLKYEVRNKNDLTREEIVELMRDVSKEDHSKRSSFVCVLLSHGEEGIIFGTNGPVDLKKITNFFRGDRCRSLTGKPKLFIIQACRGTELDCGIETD
T1 sequence (P42574 176-277 limits assumed): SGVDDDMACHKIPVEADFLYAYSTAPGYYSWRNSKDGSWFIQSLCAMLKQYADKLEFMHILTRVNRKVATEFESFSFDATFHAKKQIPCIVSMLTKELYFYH
BIR3RING (XIAP fragment) (human), sequence (P98170 243-497 limits assumed): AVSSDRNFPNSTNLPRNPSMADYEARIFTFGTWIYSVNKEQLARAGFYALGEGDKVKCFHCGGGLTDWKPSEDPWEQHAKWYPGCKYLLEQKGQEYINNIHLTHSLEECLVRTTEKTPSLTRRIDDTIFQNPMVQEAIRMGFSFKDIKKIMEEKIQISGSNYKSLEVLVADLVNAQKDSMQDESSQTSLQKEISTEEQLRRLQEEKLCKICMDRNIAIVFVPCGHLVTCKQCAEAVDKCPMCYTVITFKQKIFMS
full length XIAP, sequence (P98170 whole entry): as the sequence (P98170 whole entry) above

Molecule: COc1cccc2c1C(=O)c1c(O)c3c(c(O)c1C2=O)C[C@@](O)(C(C)=O)C[C@@H]3O[C@H]1C[C@H](N)[C@H](O)[C@H](C)O1 [daunorubicin]
- selectivity for transformed cells [1]: do not display selectivity for transformed cells

Molecule: H-AVPIAQK-NH2 [SMAC, H-Ala-Val-Pro-Ile-Ala-Gln-Lys-NH2, reference compound]
- Vmax(mix + casp3) / Vmax(casp3) [2]: 0.8 ± 0.0
- Vmax(mix + casp3 + XIAP) / Vmax(casp3 + XIAP) ([3]; TPI 1239 library): 3.8 ± 1.7
- cytotoxicity at 20 hours, 5 µM ([4]; 5 μM): 12%
- cytotoxicity at 20 hours, 25 µM ([4]; 25 μM): 16%
- cytotoxicity at 20 hours, 50 µM ([4]; 50 μM): ~16%
- cytotoxicity at 20 hours, 100 µM ([4]; 100 μM): 15%

Molecule: CCCC[C@@H](CN(C(=O)Nc1ccccc1)[C@@H](CNC(=O)Nc1ccccc1)CC1CCCCC1)N(CCc1ccc(O)cc1)C(=O)Nc1ccccc1 [TPI 1396-28]
- apoptosis induction [5]: did not induce apoptosis
- average (mean) LD50 for the 60 cell lines [6]: > 70 µM
- apoptosis induction [7]: did not induce apoptosis
- Activity* (relative caspase-3 activity: Vmax in the presence of compound / Vmax of controls having caspase-3 and XIAP) ([3]; XIAP derepression assay): 1.3
- activity in the caspase derepression assay using full length XIAP ([3]; in words): inactive analog
- caspase activation in whole cells [8]: did not induce caspase activation
- EC50 [9]: > 134000 nM
- cytotoxicity at 1 µM ([10]; 1 μM): 13%
- cytotoxicity at 10 µM ([10]; 10 μM): 13%
- cytotoxicity at 25 µM ([10]; 25 μM): 14%
- cytotoxicity at 50 µM ([10]; 50 μM): 13%

Molecule: (D-Trp)-(D-Trp)-(L-Trp)-(D-Nal) ([dW][dW]W[d2Nal]) [TPI 1332-24]
- IC50 [11]: 5000 ± 4800 nM

Molecule: rhodamine labeled SMAC (rhodamine-SMAC) (peptide)
- Kd [12]: 80 nM
- Kd [13]: 100 nM
